From the supplement of paper PMC10307832

Key:
Test in all cases: relative viability (nuclei count vs DMSO), 5 days (fraction); higher = more cells survive
EHT 1864 + OSI-027 = compound: C1COCCN1CC2=CC(=O)C(=CO2)OCCCCCSC3=C4C=CC(=CC4=NC=C3)C(F)(F)F [EHT 1864] + COc1cccc2cc(-c3nc([C@H]4CC[C@H](C(=O)O)CC4)n4ncnc(N)c34)[nH]c12 [OSI-027] (partner 0.5 µM)
How it was run: (§1)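 Lung cancer cell lines in 1536-well plates got either a single drug or a fixed anchor-drug dose together with five library-drug doses (not always all listed) in √10 steps, by pin tool, on the day after seeding. Nuclei were counted after 5 days, and relative viability is the treated-to-vehicle ratio of nuclei counts. Values are medians of duplicate plates.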

EHT 1864 + AZD7762 = compound: C1COCCN1CC2=CC(=O)C(=CO2)OCCCCCSC3=C4C=CC(=CC4=NC=C3)C(F)(F)F [EHT 1864] + NC(=O)Nc1cc(-c2cccc(F)c2)sc1C(=O)N[C@H]1CCCNC1 [AZD7762] (partner 0.2 µM)
How it was run: as §1

EHT 1864 + Foretinib = compound: C1COCCN1CC2=CC(=O)C(=CO2)OCCCCCSC3=C4C=CC(=CC4=NC=C3)C(F)(F)F [EHT 1864] + COc1cc2c(Oc3ccc(NC(=O)C4(C(=O)Nc5ccc(F)cc5)CC4)cc3F)ccnc2cc1OCCCN1CCOCC1 [Foretinib] (partner 0.25 µM)
How it was run: as §1

EHT 1864 + Pemetrexed = compound: C1COCCN1CC2=CC(=O)C(=CO2)OCCCCCSC3=C4C=CC(=CC4=NC=C3)C(F)(F)F [EHT 1864] + Nc1nc2[nH]cc(CCc3ccc(C(=O)N[C@@H](CCC(=O)O)C(=O)O)cc3)c2c(=O)[nH]1 [Pemetrexed] (partner 0.2 µM)
How it was run: as §1

Cell Line | relative viability (EHT 1864 + OSI-027; first compound 0.04 µM) | relative viability (EHT 1864 + OSI-027; first compound 0.1265 µM) | relative viability (EHT 1864 + OSI-027; first compound 0.4 µM) | relative viability (EHT 1864 + OSI-027; first compound 1.265 µM) | relative viability (EHT 1864 + OSI-027; first compound 4 µM) | relative viability (EHT 1864 + AZD7762; first compound 0.04 µM) | relative viability (EHT 1864 + AZD7762; first compound 0.1265 µM) | relative viability (EHT 1864 + AZD7762; first compound 0.4 µM) | relative viability (EHT 1864 + AZD7762; first compound 1.265 µM) | relative viability (EHT 1864 + AZD7762; first compound 4 µM) | relative viability (EHT 1864 + Foretinib; first compound 0.04 µM) | relative viability (EHT 1864 + Foretinib; first compound 0.1265 µM) | relative viability (EHT 1864 + Foretinib; first compound 0.4 µM) | relative viability (EHT 1864 + Foretinib; first compound 1.265 µM) | relative viability (EHT 1864 + Foretinib; first compound 4 µM) | relative viability (EHT 1864 + Pemetrexed; first compound 0.04 µM) | relative viability (EHT 1864 + Pemetrexed; first compound 0.1265 µM) | relative viability (EHT 1864 + Pemetrexed; first compound 0.4 µM) | relative viability (EHT 1864 + Pemetrexed; first compound 1.265 µM) | relative viability (EHT 1864 + Pemetrexed; first compound 4 µM)
NCI-H1355 | 0.417 | 0.289 | 0.409 | 0.397 | 0.396 | 0.876 | 0.65 | 0.725 | 0.688 | 0.68 | 0.972 | 0.815 | 0.921 | 0.95 | 0.966 | 1.14 | 0.872 | 1.02 | 1.1 | 0.985
NCI-H2347 | 0.389 | 0.369 | 0.442 |  | 0.396 | 0.776 | 0.654 | 0.621 | 0.727 | 0.792 | 0.974 |  | 0.862 | 0.363 | 0.809 | 0.402 | 0.403 | 0.459 | 0.465 | 0.419
LCLC-97TM1 | 0.429 | 0.583 | 0.339 | 0.568 | 0.517 | 0.275 | 0.257 | 0.152 | 0.223 | 0.234 | 0.848 | 0.842 | 0.948 | 0.939 | 0.949 | 0.205 | 0.15 | 0.169 | 0.185 | 0.15
EMC-BAC-2 | 0.465 | 0.309 | 0.383 | 0.37 | 0.341 | 1.24 | 0.944 | 1.1 | 1.09 | 0.974 | 0.967 | 1.06 | 1.01 | 1.01 | 0.951 | 0.454 | 0.421 | 0.491 | 0.439 | 0.432
NCI-H1975 | 0.709 | 0.668 | 0.667 |  | 0.591 | 0.733 | 0.717 | 0.676 | 0.642 | 0.68 | 0.933 | 0.98 | 0.883 |  | 0.876 | 0.271 | 0.28 | 0.274 | 0.291 | 0.285
BEN | 0.303 | 0.278 | 0.297 | 0.299 | 0.302 | 0.681 | 0.632 | 0.86 | 0.665 | 0.802 | 0.702 | 0.585 | 0.827 | 0.484 | 0.771 | 0.763 | 0.678 | 0.908 | 0.697 | 0.715
NCI-H23 | 0.511 | 0.352 | 0.673 | 0.523 | 0.563 | 0.203 | 0.231 | 0.223 | 0.198 | 0.221 | 0.92 | 0.959 | 0.889 | 0.956 | 0.923 | 0.715 | 0.549 | 0.632 | 0.671 | 0.748
CAL-12T | 0.591 | 0.437 | 0.593 | 0.552 | 0.8 | 0.689 | 0.543 | 0.624 | 0.517 | 0.516 | 1 | 1.05 | 1 | 0.852 | 0.908 | 1.08 | 1.12 | 1.09 | 1.18 | 0.964
